Values after ≈ are worked out from the molar mass of the structure shown. One block for each compound: values may come before it.
Tests used:
Enterococcus faecium = test: Minimum Inhibitory Concentration against Enterococcus faecium SR-7917 (VRE) was determined; type: functional
Enterococcus faecalis = test: Minimum Inhibitory Concentration against Enterococcus faecalis SR-7914 (VRE) was determined; type: functional
Staphylococcus aureus = test: Minimum Inhibitory Concentration against Staphylococcus aureus SR-3637 (MRSA) was determined; type: functional
[1] = Solubility in water was determined; type: physicochemical

- MIC (Enterococcus faecium): 6.25 µg/mL (≈ 3.83 µM)
- MIC (Enterococcus faecalis): 12.5 µg/mL (≈ 7.66 µM)
- MIC (Staphylococcus aureus): 0.2 µg/mL (≈ 0.123 µM)
Compound: CCCCCCCCCCCCCN[C@@]1(C)C[C@H](O[C@@H]2c3ccc(c(Cl)c3)Oc3cc4cc(c3O[C@@H]3O[C@H](CO)[C@@H](O)[C@H](O)[C@H]3O)Oc3ccc(cc3Cl)[C@@H](O)[C@@H](NC(=O)[C@@H](CC(C)C)NC)C(=O)N[C@@H](CC(N)=O)C(=O)N[C@H]4C(=O)NC3C(=O)NC2C(=O)N[C@@H](C(=O)O)c2cc(O)cc(O)c2-c2cc3ccc2O)O[C@@H](C)[C@@H]1O (some centres not stated)

- MIC (Enterococcus faecium): 6.25 µg/mL (≈ 3.73 µM)
- MIC (Enterococcus faecalis): 12.5 µg/mL (≈ 7.47 µM)
- MIC (Staphylococcus aureus): 0.2 µg/mL (≈ 0.119 µM)
Compound: CN[C@H](CC(C)C)C(=O)N[C@H]1C(=O)N[C@@H](CC(N)=O)C(=O)N[C@H]2C(=O)NC3C(=O)NC(C(=O)N[C@@H](C(=O)O)c4cc(O)cc(O)c4-c4cc3ccc4O)[C@H](O[C@H]3C[C@](C)(NCc4ccc(C#Cc5ccc(Cl)cc5)cc4)[C@@H](O)[C@H](C)O3)c3ccc(c(Cl)c3)Oc3cc2cc(c3O[C@@H]2O[C@H](CO)[C@@H](O)[C@H](O)[C@H]2O)Oc2ccc(cc2Cl)[C@H]1O (some centres not stated)

- MIC (Enterococcus faecium): 12.5 µg/mL (≈ 7.56 µM)
- MIC (Enterococcus faecalis): 25 µg/mL (≈ 15.1 µM)
- MIC (Staphylococcus aureus): 0.39 µg/mL (≈ 0.236 µM)
Compound: CCCCCCCOc1ccc(CN[C@@]2(C)C[C@H](O[C@@H]3c4ccc(c(Cl)c4)Oc4cc5cc(c4O[C@@H]4O[C@H](CO)[C@@H](O)[C@H](O)[C@H]4O)Oc4ccc(cc4Cl)[C@@H](O)[C@@H](NC(=O)[C@@H](CC(C)C)NC)C(=O)N[C@@H](CC(N)=O)C(=O)N[C@H]5C(=O)NC4C(=O)NC3C(=O)N[C@@H](C(=O)O)c3cc(O)cc(O)c3-c3cc4ccc3O)O[C@@H](C)[C@@H]2O)cc1 (some centres not stated)

- MIC (Enterococcus faecium): 6.25 µg/mL (≈ 3.79 µM)
- MIC (Enterococcus faecalis): 12.5 µg/mL (≈ 7.58 µM)
- MIC (Staphylococcus aureus): 0.1 µg/mL (≈ 0.0606 µM)
Compound: CN[C@H](CC(C)C)C(=O)N[C@H]1C(=O)N[C@@H](CC(N)=O)C(=O)N[C@H]2C(=O)NC3C(=O)NC(C(=O)N[C@@H](C(=O)O)c4cc(O)cc(O)c4-c4cc3ccc4O)[C@H](O[C@H]3C[C@](C)(NCc4ccc(-c5ccc(Cl)cc5)cc4)[C@@H](O)[C@H](C)O3)c3ccc(c(Cl)c3)Oc3cc2cc(c3O[C@@H]2O[C@H](CO)[C@@H](O)[C@H](O)[C@H]2O)Oc2ccc(cc2Cl)[C@H]1O (some centres not stated)

Second part, the compound before the results:

Compound: CN[C@H](CC(C)C)C(=O)N[C@H]1C(=O)N[C@@H](CC(N)=O)C(=O)N[C@H]2C(=O)NC3C(=O)NC(C(=O)N[C@@H](C(=O)O)c4cc(O)cc(O)c4-c4cc3ccc4O)[C@H](O[C@H]3C[C@](C)(N)[C@@H](O)[C@H](C)O3)c3ccc(c(Cl)c3)Oc3cc2cc(c3O[C@@H]2O[C@H](CO)[C@@H](O)[C@H](O)[C@H]2O)Oc2ccc(cc2Cl)[C@H]1O (some centres not stated)
- MIC (Enterococcus faecium): > 100 µg/mL
- Solubility [1]: > 10%
- MIC (Enterococcus faecalis): > 100 µg/mL
- MIC (Staphylococcus aureus): 0.78 µg/mL (≈ 0.538 µM)

Compound: CN[C@H](CC(C)C)C(=O)N[C@H]1C(=O)N[C@@H](CC(N)=O)C(=O)N[C@H]2C(=O)NC3C(=O)NC(C(=O)N[C@@H](C(=O)O)c4cc(O)cc(O)c4-c4cc3ccc4O)[C@H](O[C@H]3C[C@](C)(NCc4ccc(/C=C/c5ccc(Cl)cc5)cc4)[C@@H](O)[C@H](C)O3)c3ccc(c(Cl)c3)Oc3cc2cc(c3O[C@@H]2O[C@H](CO)[C@@H](O)[C@H](O)[C@H]2O)Oc2ccc(cc2Cl)[C@H]1O (some centres not stated)
- MIC (Enterococcus faecium): 6.25 µg/mL (≈ 3.73 µM)
- Solubility [1]: < 1%
- MIC (Enterococcus faecalis): 6.25 µg/mL (≈ 3.73 µM)
- MIC (Staphylococcus aureus): 0.2 µg/mL (≈ 0.119 µM)

Compound: CN[C@H](CC(C)C)C(=O)N[C@H]1C(=O)N[C@@H](CC(N)=O)C(=O)N[C@H]2C(=O)NC3C(=O)NC(C(=O)N[C@@H](C(=O)O)c4cc(O)cc(O)c4-c4cc3ccc4O)[C@H](O[C@H]3C[C@](C)(NCc4ccc(-c5ccc(-c6ccccc6)cc5)cc4)[C@@H](O)[C@H](C)O3)c3ccc(c(Cl)c3)Oc3cc2cc(c3O[C@@H]2O[C@H](CO)[C@@H](O)[C@H](O)[C@H]2O)Oc2ccc(cc2Cl)[C@H]1O (some centres not stated)
- MIC (Enterococcus faecium): 3.13 µg/mL (≈ 1.85 µM)
- MIC (Enterococcus faecalis): 12.5 µg/mL (≈ 7.39 µM)
- MIC (Staphylococcus aureus): 0.39 µg/mL (≈ 0.231 µM)

Compound: CN[C@H](CC(C)C)C(=O)N[C@H]1C(=O)N[C@@H](CC(N)=O)C(=O)N[C@H]2C(=O)N[C@H]3C(=O)N[C@H](C(=O)N[C@H](C(=O)O)c4cc(O)cc(O)c4-c4cc3ccc4O)[C@H](O)c3ccc(c(Cl)c3)Oc3cc2cc(c3O[C@@H]2O[C@H](CO)[C@@H](O)[C@H](O)[C@H]2O[C@H]2C[C@](C)(N)[C@H](O)[C@H](C)O2)Oc2ccc(cc2Cl)[C@H]1O [VANCOMYCIN]
- MIC (Enterococcus faecium): > 100 µg/mL
- Solubility [1]: > 10%
- MIC (Enterococcus faecalis): > 100 µg/mL
- MIC (Staphylococcus aureus): 1.56 µg/mL (≈ 1.08 µM)

— ChEMBL document CHEMBL1134923, “Novel semi-synthetic glycopeptide antibiotics active against methicillin-resistant staphylococcus aureus (MRSA) and vancomycin-resistant Enterococci (VRE): doubly-modified water-soluble derivatives of chloroorienticin B” (Bioorg Med Chem Lett, 2002)
